Reference: article PMC3961306, “Comparison of the Cancer Gene Targeting and Biochemical Selectivities of All Targeted Kinase Inhibitors Approved for Clinical Use” (PLoS ONE, 2014)

How the values were obtained:
Assay in all cases: Kinase profiling in a biochemical assay panel (mobility shift assays and ELISA), %-inhibition at 1 μM; selectivity entropy
[1] = molecular target: panel of more than 300 wild-type and mutant kinases (313 kinase panel) (Homo sapiens, UniProt O95819)
[2] = molecular target: T1, panel of more than 300 wild-type and mutant kinases (313 kinase panel) (Homo sapiens, UniProt O15146); details: kinase MUSK; 1 μM
T1 sequence (O15146 24-869): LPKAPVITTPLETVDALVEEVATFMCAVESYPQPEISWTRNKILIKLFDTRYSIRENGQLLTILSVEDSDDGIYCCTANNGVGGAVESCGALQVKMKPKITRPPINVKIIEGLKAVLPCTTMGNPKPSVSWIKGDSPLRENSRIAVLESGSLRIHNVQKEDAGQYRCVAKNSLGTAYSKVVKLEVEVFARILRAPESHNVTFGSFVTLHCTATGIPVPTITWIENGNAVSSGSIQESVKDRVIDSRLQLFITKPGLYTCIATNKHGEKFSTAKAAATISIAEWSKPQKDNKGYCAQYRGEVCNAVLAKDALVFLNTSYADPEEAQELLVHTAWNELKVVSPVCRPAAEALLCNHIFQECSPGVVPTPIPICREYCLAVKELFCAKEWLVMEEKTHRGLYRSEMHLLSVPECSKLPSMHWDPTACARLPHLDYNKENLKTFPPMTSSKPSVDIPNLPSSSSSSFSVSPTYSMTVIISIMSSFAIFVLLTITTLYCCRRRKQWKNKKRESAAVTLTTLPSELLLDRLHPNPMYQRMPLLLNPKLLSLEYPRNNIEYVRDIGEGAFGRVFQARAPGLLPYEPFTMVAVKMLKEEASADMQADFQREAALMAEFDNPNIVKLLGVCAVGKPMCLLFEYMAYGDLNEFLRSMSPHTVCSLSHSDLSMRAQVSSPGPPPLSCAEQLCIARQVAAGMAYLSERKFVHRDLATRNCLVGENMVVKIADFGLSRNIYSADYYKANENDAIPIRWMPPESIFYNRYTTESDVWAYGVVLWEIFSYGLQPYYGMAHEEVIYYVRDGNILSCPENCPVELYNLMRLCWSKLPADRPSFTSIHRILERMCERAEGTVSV

[3] = molecular target: panel of more than 300 wild-type and mutant kinases (313 kinase panel) (Homo sapiens, UniProt P07947); details: kinase YES; compound at 1 μM
[4] = molecular target: panel of more than 300 wild-type and mutant kinases (313 kinase panel) (Homo sapiens, UniProt Q9UK32)
[5] = molecular target: panel of more than 300 wild-type and mutant kinases (313 kinase panel) (Homo sapiens, UniProt P49840)
[6] = molecular target: panel of more than 300 wild-type and mutant kinases (313 kinase panel) (Homo sapiens, UniProt O75676); details: kinase MSK2; 1 μM
[7] = molecular target: panel of more than 300 wild-type and mutant kinases (313 kinase panel) (Homo sapiens, UniProt P10721, D816V)
[8] = molecular target: panel of more than 300 wild-type and mutant kinases (313 kinase panel) (Homo sapiens, UniProt P29317); details: kinase EPHA2; compound at 1 μM
[9] = molecular target: panel of more than 300 wild-type and mutant kinases (313 kinase panel) (Homo sapiens, UniProt Q8N4C8)
[10] = molecular target: panel of more than 300 wild-type and mutant kinases (313 kinase panel) (Homo sapiens, UniProt P43405); details: kinase SYK; 1 μM
[11] = molecular target: panel of more than 300 wild-type and mutant kinases (313 kinase panel) (Homo sapiens, UniProt Q9NYY3); details: kinase PLK2; 1 μM
[12] = molecular target: panel of more than 300 wild-type and mutant kinases (313 kinase panel) (Homo sapiens, UniProt P10721, V654A); details: kinase KIT(V654A); compound at 1 μM
[13] = molecular target: panel of more than 300 wild-type and mutant kinases (313 kinase panel) (Homo sapiens, UniProt Q13882)
[14] = molecular target: panel of more than 300 wild-type and mutant kinases (313 kinase panel) (Homo sapiens, UniProt P08581); details: kinase MET; compound at 1 μM
[15] = kinase KIT(D816V), compound at 1 μM

| Structure (SMILES) | %-inhibition of HGK ([1]; kinase HGK, compound at 1 μM) | %-inhibition of MUSK [2] | %-inhibition of YES [3] | %-inhibition of RSK4 ([4]; kinase RSK4, 1 μM) | %-inhibition of GSK3α ([5]; kinase GSK3α, compound at 1 μM) | %-inhibition of MSK2 [6] | %-inhibition of KIT(D816V) [7, 15] | %-inhibition of EPHA2 [8] | %-inhibition of MINK ([9]; kinase MINK, 1 μM) | %-inhibition of SYK [10] | %-inhibition of PLK2 [11] | %-inhibition of KIT(V654A) [12] | %-inhibition, BRK ([13]; kinase BRK, 1 μM compound) | %-inhibition of MET [14] | %-inhibition of GSK3α ([5]; 1 µM) | %-inhibition of RSK4 ([4]; 1 µM) | %-inhibition of HGK ([1]; 1 µM) | %-inhibition of KIT(D816V) ([7]; 1 µM) | %-inhibition of MINK ([9]; 1 µM) | %-inhibition, BRK ([13]; 1 µM) |
| --- | --- | --- | --- | --- | --- | --- | --- | --- | --- | --- | --- | --- | --- | --- | --- | --- | --- | --- | --- | --- |
| CCN(CC)CCNC(=O)c1c(C)[nH]c(/C=C2\C(=O)Nc3ccc(F)cc32)c1C [sunitinib] | 96% | 99% | 99% |  |  |  |  |  |  |  |  |  |  |  |  |  |  |  |  |  |
| COc1cc2nccc(Oc3ccc(NC(=O)C4(C(=O)Nc5ccc(F)cc5)CC4)cc3)c2cc1OC [cabozantinib] | 21% | 95% | 90% | -3.65% | -10% | -3.52% | 23% | 98% | -2% | -3% | 4.4% | 97% |  |  |  |  |  |  |  |  |
| C[C@@H](Oc1cc(-c2cnn(C3CCNCC3)c2)cnc1N)c1c(Cl)ccc(F)c1Cl [crizotinib] |  | 99% | 65% | -1.58% | -2.56% | -1.8% | 21% |  | 0% |  | 1.1% | -3.75% | 15% |  |  |  |  |  |  |  |
| COc1cc2c(Nc3ccc(Br)cc3F)ncnc2cc1OCC1CCN(C)CC1 [vandetanib] | 69% | 42% | 100% | 5.43% | -5.37% | -3.21% |  | 86% | 24% | 27% | -3% |  | 100% |  |  |  |  |  |  |  |
| CNC(=O)c1cc(Oc2ccc(NC(=O)Nc3ccc(Cl)c(C(F)(F)F)c3)c(F)c2)ccn1 [regorafenib] | 53% | 80% | 62% | -1.19% | 37% | 2.43% | 40% | 88% | 24% | 3.55% | -3.23% |  | 20% | 2.12% |  |  |  |  |  |  |
| Cc1ccc(C(=O)Nc2ccc(CN3CCN(C)CC3)c(C(F)(F)F)c2)cc1C#Cc1cnc2cccnn12 [ponatinib] | 92% | 100% | 101% | 13% |  | 27% |  | 102% | 80% | 10% | -1.17% |  | 97% | 17% |  |  |  |  |  |  |
| Cc1ccc(Nc2nccc(N(C)c3ccc4c(C)n(C)nc4c3)n2)cc1S(N)(=O)=O [pazopanib] | 50% | 9% | 68% | 10% | 6.5% | 1.45% | 87% | 15% | 35% | 40% | 1.23% | 87% | 70% |  |  |  |  |  |  |  |
| Cc1nc(Nc2ncc(C(=O)Nc3c(C)cccc3Cl)s2)cc(N2CCN(CCO)CC2)n1 [dasatinib] | 78% |  |  |  |  |  |  |  | 40% | 69% |  |  |  |  |  |  |  |  |  |  |
| COc1cc(Nc2c(C#N)cnc3cc(OCCCN4CCN(C)CC4)c(OC)cc23)c(Cl)cc1Cl [bosutinib] | 100% | 58% | 97% | 43% |  | -2.27% | 78% |  | 100% | 100% | 21% | 8% | 35% | 10% | 9% |  |  |  |  |  |
| CS(=O)(=O)CCNCc1ccc(-c2ccc3ncnc(Nc4ccc(OCc5cccc(F)c5)c(Cl)c4)c3c2)o1 [lapatinib] |  | 4.38% | 26% |  | -8% | 2% |  | 1.22% |  | 0% | -4% |  |  | 0% |  | 2.39% | 1% | -3% | -0.581% | 63% |
